Test results: patent publication US9968603B2, “Systems for sustained intraocular delivery of low solubility compounds from a port delivery system implant” (ForSight Vision4, Inc., priority 2013, dated 2018)
Values after ≈ are worked out from the molar mass of the structure shown. Counter-ions that a name gives are not always drawn. Like-named read-outs stand apart in the source and are kept apart here.

Key:
Aqueous solubility = assay type: physicochemical
[1] = Formulations with amphiphilic agents and non-aqueous solvents (no complexing agent), concentration dissolved; assay type: physicochemical; conditions: neat PEG 300
[2] = Formulation (solubility) screening with cyclodextrins, concentrations achieved; assay type: physicochemical; conditions: for SBE-β-CD [CAPTISOL] Formulations (CD Excess), concentration: CD excess: Pazopanib 20 (5x), 50 (2.5x), 80 (2.5x), Sunitinib 2.5x, 4x, Axitinib 6x, Linifanib 8x, Motesanib 2x; for Expected Concentration Achieved: achieved vs expected formulation concentration
Procedure: For example, solid therapeutic agents are mixed in an aqueous solution with cyclodextrin, buffering agent, and/or other formulation agents of the current invention. The pH of the resulting mixture is adjusted with a base, for example, NaOH, or an acid, for example, citric acid. The mixture is then filtered, and the resulting filtered solution is used to fill the PDS.
A solubility screening of the therapeutic agent of the invention was carried out during the pre-formulation stage. For example, the solubility of the therapeutic agents in acids, cyclodextrin (CD) (e.g., SBEβCD (CAPTISOL®), HPβCD, HPγCD), hydrophilic stabilizing agents (e.g., PVP), and buffering agents (e.g., citric acid, histidine) were explored. Systematic formulation screening may include determination of CD:therapeutic agent ratio, pH, therapeutic agent concentration, and agents.
For example, in the formulation process with complexing agents such as cyclodextrins, a vial of solid therapeutic agent was mixed with a vial containing a solution of CD, acid, and agents in water. The pH of the resulting mixture was adjusted by NaOH. The mixture was then be filtered, and the resulting filtered solution was used to fill the PDS device or used to determine its stability.

[3] = Viscosity and water content of cyclodextrin formulations; assay type: physicochemical; conditions: 80 mg/mL Pazopanib
[4] = Diffusion coefficient from Release Rate Index and single exponential model, compared with Stokes-Einstein prediction; conditions: 21 mg/mL Sunitinib, 2.5:1 molar ratio HPβCD
Procedure: The measured diffusion coefficient was compared to the diffusion coefficient predicted (using Stokes-Einstein equation to correct for MW (via volume of diffusing species) and temperature (via temperature dependence of the viscosity of water)) for a molecule of that molecular weight.
The rate was assessed by using the measured Release Rate Index (RRI) and volume for a particular device and using the single exponential diffusion model to determine a measured diffusion coefficient for a particular formulation and device combination. The measured diffusion coefficient was compared to the diffusion coefficient predicted (using Stokes-Einstein equation to correct for MW (via volume of diffusing species) and temperature (via temperature dependence of the viscosity of water)) for a molecule of that molecular weight.

## CNC(=O)c1ccccc1Sc1ccc2c(/C=C/c3ccccn3)n[nH]c2c1 [Axitinib, N-Methyl-2-((3-((1E)-2-(pyridin-2-yl)ethenyl)-1H-indazol-6-yl)sulfanyl)benzamide]
Aqueous solubility; PBS, aqueous buffer, read-out: solubility in PBS
  solubility: 0.3 µg/mL (≈ 0.776 µM)

## Cc1ccc(F)c(NC(=O)Nc2ccc(-c3cccc4[nH]nc(N)c34)cc2)c1 [Linifanib, N-[4-(3-Amino-1H-indazol-4-yl)phenyl]-N′-(2-fluoro-5-methylphenyl)urea]
[1]
  concentration formulated: 20 mg/mL
[2]
  SBE-β-CD [CAPTISOL] Formulations (CD Excess), concentration: 6 mg/mL
  Expected Concentration Achieved: No

## CC1(C)CNc2cc(NC(=O)c3cccnc3NCc3ccncc3)ccc21 [Motesanib, N-(2,3-Dihydro-3,3-dimethyl-1H-indol-6-yl)-2-[(4-pyridinylmethyl)amino]-3-pyridinecarboxamide]
[2]
  SBE-β-CD [CAPTISOL] Formulations (CD Excess), concentration: 30 mg/mL
  Expected Concentration Achieved: No

## Cc1ccc(Nc2nccc(N(C)c3ccc4c(C)n(C)nc4c3)n2)cc1S(N)(=O)=O [Pazopanib, 5-[[4-[(2,3-dimethyl-2H-indazol-6-yl)methylamino]-2-pyrimidinyl]amino]-2-methylbenzenesulfonamide monohydrochloride]
Aqueous solubility; aqueous solution with 0.1% polysorbate-20, aqueous with cosolvent or surfactant or cyclodextrin
  solubility: 0.1 µg/mL
Aqueous solubility; neutral pH
  solubility in phosphate buffered saline: insoluble
[3]; 2.2:1 molar ratio CAPTISOL
  viscosity: at least 5 centipoise
[3]; 5:1 CAPTISOL
  water content: approximately 0.5 g/mL

## CCN(CC)CCNC(=O)c1c(C)[nH]c(/C=C2\C(=O)Nc3ccc(F)cc32)c1C.O=C(O)CC(O)C(=O)O [Sunitinib, Butanedioic acid, hydroxy-, (2S)-, compound with N-[2-(diethylamino)ethyl]-5-[(Z)-(5-fluoro-1,2-dihydro-2-oxo-3H-indol-3-ylidine)methyl]-2,4-dimethyl-1H-pyrrole-3-carboxamide (1:1)]
[4]
  measured diffusion coefficient: 3.3e-7 cm^2/s
  times lower than the predicted single molecule diffusion coefficient: 20 times
Aqueous solubility; aqueous solution, pH 4.1, aqueous buffer, read-out: solubility
  solubility: > 25000 µg/mL
Aqueous solubility; aqueous solution, pH 7.4, aqueous buffer, read-out: solubility
  solubility: 10 µg/mL
